Measured values published in US20230110676A1, “Method of Treating Diseases” (priority 2020, published 2023).

Tests used:
N2 C. elegans = assay: Life-extension effect on worm under regular culture conditions; type: in vivo
Excerpt: In this example, the biological functions of ergothioneine were investigated using C. elegans as the model system. Using C. elegans as the model has several prominent advantages, including short life cycle, simple experimental manipulation, and rich collection of publicly available genetic mutants (e.g., Caenorhabditis Genetics Center). In addition, its genome comprises ⅔ of human disease-related genes.
(§1) To test the biological effect of ergothioneine, the first set of experiments was to test the toxicity level of ergothioneine on the worm model. In humans, ergothioneine is enriched up to 2 mM concentration in many parts of the body. […] At 150 μM, the lifespan of the wild type worm can be extended by 30-40% (FIG. 2A). Over the last two decades, there is numerous evidence supporting the life-extension effect by caloric restriction from various model systems (yeast, worm, fly, and mouse). Thus, the effect of ergothioneine on worm Eat-2 mutant was also examined.

worm Eat-2 mutant = assay: Life-extension effect on caloric-restriction worm mutant; type: in vivo, C. elegans; conditions: Eat-2 mutant (partial starvation)
Method: as §1

N2 worms = assay: Protective effect under paraquat-induced oxidative stress; type: in vivo, C. elegans; conditions: N2 worms treated with paraquat
Method: Encouraged by the clear life-extension effect on worm model under regular culture conditions in the above example, the protective effect of ergothioneine under stresses was examined. In the first experiment, the worm was treated with paraquat to induce oxidative stress. Under the paraquat-induced oxidative stress conditions, N2 worms' life span was decreased by nearly 50% (FIG. 2C vs. FIG. 2A).

N2 worm = assay: Protective effect under heat shock conditions; type: in vivo, C. elegans; conditions: N2 worm moved from 20° C. to 42° C.; a few hundred micromolar; 3 hours without
Method: Besides the oxidative stress, the protective effect of ergothioneine for the worm under heat shock conditions was also examined. After the worms were cultured multiple days, they were then moved from 20° C. to 42° C. Under such a heat-shock condition, 50% of the worm died within 3 hours. However, in the presence of a few hundred micromolar concentration of ergothioneine, it extends N2 worm's average survival time from 3 hours to nearly 8-9 hours (FIG. 2D).

daf-16 mutant worm = assay: Life-extension effect on daf-16 mutant worm; type: in vivo, C. elegans
Excerpt: To address this issue, the large collection of C. elegans mutants in Caenorhabditis Genetics Center was again utilized in this example. Among the mutants examined, the daf-16 mutant results stood out (FIGS. 3A, 3B, and 3C). […] Among genes of the IIS pathway, daf-2 encodes an insulin-like receptor, and it is the starting point of the pathway that eventually leads to daf-16. Daf-16 is the hub, where information from several different pathways merge and then use to regulate many physiological processes. Worm daf-16 mutant has an average life-span that is […] the N2 worm (FIGS. 3A, 3B, and 3C).

[1] = tested on: MPTP Parkinson's disease mouse model; assay: MPTP Parkinson's disease mouse model, latency test on rotatory plate/rod; type: in vivo; conditions: mice, 20 mg/Kg MPTP for seven days; ergothioneine 10, 20 mg/kg co-injection or 40 mg/kg in water, 7 days
Method: (§2) Parkinson mouse model was induced by 1-methyl-4-phenyl-1,2,3,6-tetrahydropyridine (MPTP), which induced toxicity to dopaminergic neurons (latency test). Behavior test was done by testing mouse behavior: how long can they hold on rotatory plate/rod. The longer they stay, the better their health conditions. After MPTP treatment, mice are clearly much weaker. […] Significance of difference was determined by unpaired two-tailed t-test. #P<0.05 compared with control, *P<0.05, **P<0.01, ****P<0.0001 compared with MPPP-treated control. 1) Latency test results of control group with no MPTP or ergothioneine; 2) Latency test results of mice treated with 20 mg/Kg of MPTP for seven days; 3) Latency test results of mice treated with 20 mg/Kg of MPTP and 10 mg/kg of ergothioneine (co-injection) for seven days; 4) Latency test results of mice treated with 20 mg/Kg of MPTP and 20 mg/kg of ergothioneine (co-injection) for seven days; 5) Latency test results of mice treated with 20 mg/Kg of MPTP and 40 mg/kg of ergothioneine in water for seven days.

[2] = tested on: MPTP Parkinson's disease mouse model; assay: MPTP Parkinson's disease mouse model, pole test; type: in vivo; conditions: mice, 20 mg/Kg MPTP for seven days; ergothioneine 10, 20 mg/kg co-injection or 40 mg/kg in water, 7 days
Method: as §2, with “by MPTP.” for “by 1-methyl-4-phenyl-1,2,3,6-tetrahydropyridine (MPTP), which induced toxicity to dopaminergic neurons (latency test).”, “long does it take for the mice to climb to the top of a rod. The shorter time” for “long can”, “they took,” for “they hold on rotatory plate/rod. The longer they stay,”, “health conditions are.” for “health conditions.”, “t-test. ###P<0.05” for “t-test. #P<0.05”, “control, ***P<0.001,” for “control, *P<0.05, **P<0.01,”

worm = assay: Protective effect on MPP+ detrimental effect, worm survival rate; type: in vivo; conditions: 0.75 mM of MPTP plus 400 μM ergothioneine; ~50% without ergothioneine
Method: However, ergothioneine can offer significant protection. The last column is the worm with no ergothioneine or MPTP treatment. The first column is the worm survival rate after treating with 0.75 mM of MPTP.

[3] = tested on: a-Synuclein Overexpression Worm Model; assay: Heat shock experiment in α-synuclein overexpression worm Parkinson's disease model; type: in vivo; conditions: 1.6 mM, 3 hours without
Method: FIGS. 13A and B show Protective Effect for Heat-shock for Both Wild-type and a-Synuclein Overexpression Worm Model (Parkinson's disease). Heat shock experiment. α-synuclein was expressed to create worm parkinson's disease model on worm. […] With 1.6 mM of ergothioneine, 50% survival time increased to 8 hours.

mouse = assay: Open field experiment, physical activities of disease group at week #57; type: in vivo; conditions: mice, week #57, treated vs control disease group
Excerpt: FIGS. 5A and 5B show the physical activities of untreated disease group and treated disease group at week #57 (open field experiment). A) Real time trace of mouse movement. […] B) Quantitative measurement of the distance each mouse moved during the testing period and the time they spent in the open area.

Structure (SMILES): C[N+](C)(C)[C@@H](Cc1c[nH]c(=S)[nH]1)C(=O)[O-] [ergothioneine]
- life-extension effect (N2 C. elegans; N2 C. elegans, concentrations as low as 50 μM): robust life-extension effect
- lifespan extension (N2 C. elegans; wild type worm, 150 μM): 30-40%
- life extension of Eat-2 worm mutant (worm Eat-2 mutant): can further extend the life
- protective effect under oxidative stress (N2 worms): clearly offers protective effects
- average survival time under heat shock (N2 worm): 8 to 9 h
- life-extension effect on daf-16 mutant (daf-16 mutant worm): the life-extension effect was abolished
- latency test (time held on rotatory plate/rod) [1]: mice are clearly protected from these detrimental effects
- pole test (time to climb to the top of a rod) [2]: mice are clearly protected from these detrimental effects
- worm survival rate (worm): ~90%
- 50% survival time under heat shock [3]: 8 h
- physical activities in open field (mouse): demonstrated much more activities
